From patent US12391679B2, “Benzamide-substituted bicyclic imidazo- and pyrazolo-fused -pyridine, -pyrimide, and -pyridazine compounds for treatment of inflammatory diseases” (ONCO3R Therapeutics BV, priority 2019, dated 2025)

Columns and labels:
[1] = tested on: LPS triggered IL-10 secretion in monocyte-derived macrophages; test: MdM assay: LPS-triggered IL-10 (ELISA); assay type: cell-based; details: Macrophage; human MdM; LPS 200 ng/mL; supernatant after 2 h; maximal fold change vs LPS only, median of two or more assays; read-out: IL-10 FCmax median
Experimental: SIK inhibition inhibits TNFα and increases IL-10 release in LPS triggered monocyte-derived macrophages (MdM) and dendritic cells (MdDCs) (Clark et al. 2012; Sundberg et al. 2014; Ozanne et al. 2015). This assay evaluates illustrative compounds of the invention for their inhibition of LPS-induced TNFα and LPS triggered IL-10 secretion in monocyte-derived macrophages.
PBMCs are isolated from human blood samples (buffycoats). The buffy coat is aseptically transferred into a 50 mL Falcon tube, and diluted 1/2 in PBS. Falcon tubes are filled with 20 mL Lymphoprep™, on top of which 25 mL of the buffy coat is carefully added, tubes are centrifuged for 35 min at 400 g in temperature controlled centrifuge, without brake, at 25° C. PBMCs are aspirated from the white interface layer between sample and Lymphoprep™. PBMCs are washed five times in PBS. Cells are resuspended in RPMI 1640 complete medium supplemented with 10% FBS, 1% P/S, and cell density is determined using a hematologic analyzer (Sysmex XS-500i).
PBMCs are centrifuged at 300×g for 10 min and resuspended at a density of 1.0*10^7 cells/80 μL Miltenyi buffer (PBS, pH 7.4, 1% FBS, 2 mM EDTA).
Starting from this point of the protocol all steps are performed on ice. 20 μL of CD14+ micro-beads are added per 1.0*10^7 cells, the tube is mixed and incubated for 15 min in the fridge at 4° C. Cell suspension volume is adjusted to total volume of 100 mL using Miltenyi buffer, mixed gently and subsequently centrifuged for 10 min at 300×g. Supernatant is discarded and cell pellet is resuspended in 12 mL of Miltenyi buffer.
Four LS columns are placed in the MACS Separator (magnet) from Miltenyi Biotec, and are prewet by rinsing with 3 mL of MACS buffer per column. Three mL of cell suspension is added onto the column (max 1*10^8 of labelled cells/column), and columns are subsequently washed 3 times with 3 mL of Miltenyi buffer.
The columns are removed from the magnets, and 5 mL of Miltenyi buffer are added to the column to flush out the CD14+ fraction by pushing the plunger into the column. The flushed fractions are collected in a fresh 50 mL Falcon and volume is adjusted to 30 mL using Miltenyi buffer, cells are centrifuged for 10 min at 300×g. The obtained cell pellet is resuspended in 10 mL RPMI w/o FBS, and cell density is determined using a hematologic analyser (Sysmex XS-500i). 100 000 cells are seeded per well of a 96-well plate for differentiation to MdM in RPMI 1640 medium supplemented with 10% FBS, 1% P/S and 100 ng/mL rhM-CSF. On day 5 the medium is refreshed with 100 μL RPMI 1640 medium supplemented with 10% FBS, 1% P/S and 100 ng/mL rhM-CSF.
On day 10, MdMs are triggered and compound is added.
A compound dilution plate is made in 100% DMSO by 3-fold dilution of 10 mM stock solution. An intermediate dilution plate (10× final concentration) is made by diluting the compound dilution plate 50-fold in RPMI medium.
Medium is carefully removed from cell plates using multichannel pipette, and replaced by 80 μL fresh medium. 10 μL of the 10× final concentration compound is added to the cells and incubated for 1 hour at 37° C. before addition of trigger. No trigger conditions/trigger conditions are spiked with equal final DMSO concentrations of 0.2% DMSO. 10 μL of 10×LPS (final conc. 200 ng/mL) solution are added to all wells except for the ‘no trigger wells’ where 10 μL medium is added. Supernatant is collected after 2 h (IL-10 determination) and after 20 h (TNFα determination) of LPS triggering. […]

[2] = tested on: LPS triggered IL-10 secretion in monocytes; test: Monocytes assay: LPS-triggered IL-10 (ELISA); assay type: cell-based, human; details: Homo sapiens, Monocyte, LPS-triggered IL-10 induction, median maximal fold change vs LPS only, read-out: IL-10 FCmax median
Summary of the method: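 CD14+ monocytes bead-isolated from human PBMCs, pretreated with compound 1 h at 37 °C (0.2% DMSO), then stimulated with LPS 200 ng/mL for 4 h. Supernatant IL-10 measured by chemiluminescent sandwich ELISA; fold change versus LPS only per concentration, reported as maximal fold change (FCmax).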

Row | Structure (SMILES) | maximal fold induction [1] | maximal fold induction [2]
1 | COc1cc(-c2cnn3cc(C(C)(C)C#N)ccc23)cc(OC)c1C(=O)N[C@@H]1C[C@@H]1F [Cpd 245, 4-[6-(1-cyano-1-methyl-ethyl)pyrazolo[1,5-a]pyridin-3-yl]-N-[(1R,2S)-2-fluorocyclopropyl]-2,6-dimethoxy-benzamide] | < 1.5 | < 1.5
2 | COc1cc(-c2cnc3cc(C(C)(C)C#N)ccn23)cc(OC(F)F)c1C(=O)NC1CC1 [Cpd 19, 4-[7-(1-cyano-1-methyl-ethyl)imidazo[1,2-a]pyridin-3-yl]-N-cyclopropyl-2-(difluoromethoxy)-6-methoxy-benzamide] | < 1.5 | < 1.5
3 | COc1cc(-c2cnc3cc(C(C)(C)C#N)cnn23)cc(OC(F)F)c1C(=O)N[C@@H]1C[C@@H]1F [Cpd 228, 4-[7-(1-cyano-1-methyl-ethyl)imidazo[1,2-b]pyridazin-3-yl]-2-(difluoromethoxy)-N-[(1R,2S)-2-fluorocyclopropyl]-6-methoxy-benzamide] | < 1.5 | < 1.5
4 | COc1cc(-c2cnn3cc(C(C)(C)CO)ccc23)cc(OC(F)F)c1C(=O)N[C@@H]1C[C@@H]1F [Cpd 242, 2-(difluoromethoxy)-N-[(1R,2S)-2-fluorocyclopropyl]-4-[6-(2-hydroxy-1,1-dimethyl-ethyl)pyrazolo[1,5-a]pyridin-3-yl]-6-methoxy-benzamide] | < 1.5 | < 1.5
5 | COc1cc(-c2cnn3cc(C(C)(C)N)ccc23)cc(OC(F)F)c1C(=O)N[C@@H]1C[C@@H]1F [Cpd 256, 4-[6-(1-amino-1-methyl-ethyl)pyrazolo[1,5-a]pyridin-3-yl]-2-(difluoromethoxy)-N-[(1R,2S)-2-fluorocyclopropyl]-6-methoxy-benzamide] | 1.5 to 4.5 | < 1.5
6 | COc1cc(-c2cnn3cc(C4(C#N)CCOCC4)ccc23)cc(OC(F)F)c1C(=O)N[C@@H]1C[C@@H]1F [Cpd 243, 4-[6-(4-cyanotetrahydropyran-4-yl)pyrazolo[1,5-a]pyridin-3-yl]-2-(difluoromethoxy)-N-[(1R,2S)-2-fluorocyclopropyl]-6-methoxy-benzamide] | < 1.5 | < 1.5
7 | COc1cc(-c2cnn3cc(C(C)(C)C#N)cnc23)cc(OC(F)F)c1C(=O)N[C@@H]1C[C@@H]1F [Cpd 231, 4-[6-(1-cyano-1-methyl-ethyl)pyrazolo[1,5-a]pyrimidin-3-yl]-2-(difluoromethoxy)-N-[(1R,2S)-2-fluorocyclopropyl]-6-methoxy-benzamide] | 1.5 to 4.5 | < 1.5
8 | COc1cc(-c2cnn3cc(C(C)(C)C#N)ccc23)cc(OC(F)F)c1C(=O)NC1CC1 [Cpd 208, 4-[6-(1-cyano-1-methyl-ethyl)pyrazolo[1,5-a]pyridin-3-yl]-N-cyclopropyl-2-(difluoromethoxy)-6-methoxy-benzamide] | < 1.5 | < 1.5
